Assay type in all cases: cell-based
The target in test [1] is T1, 320 non-olfactory GPCRs (Homo sapiens, UniProt P51582).
T1 construct: expressed in transfected cells; host or cells: HTLA cells
The conditions noted are these: receptor P2RY4; replicate values, Fig_4g.

In test [2] the target is T2, 320 non-olfactory GPCRs (Homo sapiens, UniProt Q99788).
T2 construct: expressed in transfected cells; host or cells: HTLA cells

Test [3] deals with T3, 320 non-olfactory GPCRs (Homo sapiens, UniProt P49146).
T3 construct: expressed in transfected cells; host or cells: HTLA cells
The conditions noted are these: receptor NPY2R; replicate values, Fig_4g.

Test [4] addresses T4, 320 non-olfactory GPCRs (Homo sapiens, UniProt P41180).
T4 construct: expressed in transfected cells; host or cells: HTLA cells

The text below walks through data of PMC7044277 (Nature Communications, 2020).

Where “and” joins values, the source holds several entries; their conditions need not be identical. Equal values may be shown once.
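Throughout, for Fold of Basal: compound tested at 1 µM final concentration.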
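Throughout, for GPCRome agonism screen response: fold over basal response of each receptor without drug.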

T4 sequence (P41180 20-1078): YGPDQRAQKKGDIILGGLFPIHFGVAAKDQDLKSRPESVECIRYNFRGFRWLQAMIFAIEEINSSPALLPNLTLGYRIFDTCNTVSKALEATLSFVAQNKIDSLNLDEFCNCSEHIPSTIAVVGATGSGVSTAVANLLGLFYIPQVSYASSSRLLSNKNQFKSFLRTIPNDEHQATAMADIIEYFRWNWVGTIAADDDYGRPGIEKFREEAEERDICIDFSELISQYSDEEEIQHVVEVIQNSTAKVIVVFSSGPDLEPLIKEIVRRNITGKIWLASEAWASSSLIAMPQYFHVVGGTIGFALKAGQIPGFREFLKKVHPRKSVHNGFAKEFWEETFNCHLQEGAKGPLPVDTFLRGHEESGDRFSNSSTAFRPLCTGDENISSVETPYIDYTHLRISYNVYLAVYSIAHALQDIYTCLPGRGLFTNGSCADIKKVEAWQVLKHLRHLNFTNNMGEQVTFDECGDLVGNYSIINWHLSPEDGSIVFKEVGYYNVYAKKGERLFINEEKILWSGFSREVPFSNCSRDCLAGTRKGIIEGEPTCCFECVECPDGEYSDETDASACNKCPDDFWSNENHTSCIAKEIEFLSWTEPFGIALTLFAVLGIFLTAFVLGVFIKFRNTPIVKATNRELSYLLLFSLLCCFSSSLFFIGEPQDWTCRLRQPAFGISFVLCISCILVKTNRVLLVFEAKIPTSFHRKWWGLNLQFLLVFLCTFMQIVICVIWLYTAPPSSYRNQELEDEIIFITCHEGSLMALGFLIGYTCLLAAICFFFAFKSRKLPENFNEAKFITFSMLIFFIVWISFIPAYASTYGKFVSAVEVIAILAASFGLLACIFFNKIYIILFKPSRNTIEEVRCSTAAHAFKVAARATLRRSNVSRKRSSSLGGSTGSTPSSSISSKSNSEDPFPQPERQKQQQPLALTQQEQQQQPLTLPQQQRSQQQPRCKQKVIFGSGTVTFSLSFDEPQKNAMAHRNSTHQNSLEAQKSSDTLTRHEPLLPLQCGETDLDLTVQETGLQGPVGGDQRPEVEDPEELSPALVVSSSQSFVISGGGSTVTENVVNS
T1 sequence (P51582 whole entry): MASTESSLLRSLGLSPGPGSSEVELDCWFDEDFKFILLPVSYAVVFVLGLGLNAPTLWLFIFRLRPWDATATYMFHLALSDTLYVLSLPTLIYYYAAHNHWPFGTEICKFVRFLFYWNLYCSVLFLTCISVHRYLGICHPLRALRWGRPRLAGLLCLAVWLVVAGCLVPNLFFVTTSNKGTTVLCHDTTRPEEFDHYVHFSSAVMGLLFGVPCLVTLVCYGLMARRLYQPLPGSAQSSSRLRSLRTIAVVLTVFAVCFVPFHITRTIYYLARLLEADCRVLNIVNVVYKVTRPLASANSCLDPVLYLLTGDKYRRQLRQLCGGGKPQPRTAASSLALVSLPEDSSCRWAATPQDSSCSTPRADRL
T3 sequence (P49146 whole entry): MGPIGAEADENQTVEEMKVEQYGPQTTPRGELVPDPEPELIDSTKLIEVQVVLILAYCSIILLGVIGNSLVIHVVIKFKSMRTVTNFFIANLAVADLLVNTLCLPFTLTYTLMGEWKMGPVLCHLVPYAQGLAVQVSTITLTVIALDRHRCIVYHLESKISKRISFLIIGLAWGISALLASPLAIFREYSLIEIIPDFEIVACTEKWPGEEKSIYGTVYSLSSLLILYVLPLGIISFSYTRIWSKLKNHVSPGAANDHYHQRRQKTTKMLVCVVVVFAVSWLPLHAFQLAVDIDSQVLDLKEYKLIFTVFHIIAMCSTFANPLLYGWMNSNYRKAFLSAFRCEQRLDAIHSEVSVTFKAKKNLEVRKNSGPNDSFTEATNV
T2 sequence (Q99788 whole entry): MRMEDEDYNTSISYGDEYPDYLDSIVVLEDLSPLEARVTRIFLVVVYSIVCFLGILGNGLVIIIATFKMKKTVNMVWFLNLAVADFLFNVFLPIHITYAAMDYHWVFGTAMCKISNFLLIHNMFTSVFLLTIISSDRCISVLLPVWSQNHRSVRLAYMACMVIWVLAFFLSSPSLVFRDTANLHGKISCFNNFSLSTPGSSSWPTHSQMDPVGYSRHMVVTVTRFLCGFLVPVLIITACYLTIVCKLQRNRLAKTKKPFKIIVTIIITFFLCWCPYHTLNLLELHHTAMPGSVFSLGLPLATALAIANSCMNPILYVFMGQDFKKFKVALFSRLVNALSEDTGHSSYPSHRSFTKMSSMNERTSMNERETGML

Regarding `CCOc1cccc2cc(C(C)NCC3(O)CCCCC3)oc12` (stereo not shown) [O4LE6], the “GPCRome agonism screen response” value on 320 non-olfactory GPCRs [1] is 0.9286 and 1.003 and 1.314 and 2.009; on 320 non-olfactory GPCRs [3], 0.7835 and 0.8337 and 0.6188 and 0.7117. Moreover, the “Fold of Basal” value on 320 non-olfactory GPCRs [2] is 0.9321 and 1.173 and 0.7369 and 1.152; on 320 non-olfactory GPCRs [4], 0.9783 and 1.253 and 1.231 and 1.397.
